Data reported in patent US20080275032A1, “Pyridazinone compounds” (priority 2006, published 2008).
Where a name gives a salt, the structure may show the parent alone.

Molecular target: HCV NS5B polymerase (Hepatitis C virus genotype 1b, UniProt P26663)
Experiment: biochemical
Details: HCV polymerase inhibition, 50 nM enzyme, 2 h at room temperature, FlashPlate [α-33P]GTP incorporation
Method: NS5B Polymerase Inhibition Assay (IC50)
Compounds were tested for HCV polymerase inhibition. Assays were performed in a 96-well streptavidin-coated FlashPlate using 50 nM enzyme, 0.5 μCi of [α-^33P]GTP, 0.6 μM GTP, and 50 nM 5′biotinylated oligo (rG13)/poly rC in 20 mM Tris-HCl, pH 7.5, 5 mM MgCl2, 20 mM NaCl, 5 mM dithiothreitol, and 0.1 g/L BSA. The reaction was stopped by aspiration after 2 h at room temperature and the plate was washed several times. After washing, incorporated radioactivity was counted using a Microbeta scintillation counter.

Chain of HCV NS5B polymerase (P26663 2420-3010): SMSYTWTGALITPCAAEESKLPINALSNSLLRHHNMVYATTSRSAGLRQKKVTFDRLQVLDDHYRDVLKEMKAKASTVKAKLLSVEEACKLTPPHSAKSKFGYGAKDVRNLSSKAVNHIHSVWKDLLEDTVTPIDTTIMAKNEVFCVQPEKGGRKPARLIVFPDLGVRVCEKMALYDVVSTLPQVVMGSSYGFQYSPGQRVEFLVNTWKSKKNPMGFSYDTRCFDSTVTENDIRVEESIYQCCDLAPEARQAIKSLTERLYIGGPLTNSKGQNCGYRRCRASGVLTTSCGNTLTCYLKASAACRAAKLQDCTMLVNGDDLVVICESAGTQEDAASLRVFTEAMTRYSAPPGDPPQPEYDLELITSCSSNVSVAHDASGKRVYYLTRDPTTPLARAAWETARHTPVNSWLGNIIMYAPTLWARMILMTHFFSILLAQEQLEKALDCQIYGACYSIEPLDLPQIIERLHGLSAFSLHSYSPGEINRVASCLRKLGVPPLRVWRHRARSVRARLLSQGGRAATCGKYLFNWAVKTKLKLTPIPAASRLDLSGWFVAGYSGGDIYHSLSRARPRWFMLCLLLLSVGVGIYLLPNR

| IC50 [nM] | SMILES |
| --- | --- |
| 1000 to 10000 | CC(C)CCn1nc(-c2cccs2)c(OC(=O)C(C)C)c(C2=Nc3ccc(N(C)S(C)(=O)=O)cc3S(=O)(=O)N2)c1=O [Isobutyric acid 5-[7-(methanesulfonyl-methyl-amino)-1,1-dioxo-1,2-dihydro-1λ^6-benzo[1,2,4]thiadiazin-3-yl]-1-(3-methyl-butyl)-6-oxo-3-thiophen-2-yl-1,6-dihydro-pyridazin-4-yl ester] |
| 100 to 1000 | CC(C)CCn1nc(-c2cncs2)c(O)c(C2=Nc3ccc(N(CCO)S(C)(=O)=O)cc3S(=O)(=O)N2)c1=O [N-(2-Hydroxy-ethyl)-N-{3-[5-hydroxy-2-(3-methyl-butyl)-3-oxo-6-thiazol-5-yl-2,3-dihydro-pyridazin-4-yl]-1,1-dioxo-1,2-dihydro-1λ^6-benzo[1,2,4]thiadiazin-7-yl}-methanesulfonamide] |
| 100 to 1000 | CC(C)CCn1nc(-c2cccs2)c(O)c(C2=Nc3ccc(N(C(=O)OC(C)C)S(C)(=O)=O)cc3S(=O)(=O)N2)c1=O [N-({3-[5-hydroxy-2-(3-methyl-butyl)-3-oxo-6-thiophen-2-yl-2,3-dihydro-pyridazin-4-yl]-1,1-dioxo-1,2-dihydro-1λ^6-benzo[1,2,4]thiadiazin-7-yl}-N-methanesulfonyl)-isopropylcarbamate] |
| 1000 to 10000 | CC(C)CCn1nc(-c2cccs2)c(O)c(C2=Nc3ccc(N(COCc4ccccc4)S(C)(=O)=O)cc3S(=O)(=O)N2)c1=O [N-Benzyloxymethyl-N-{3-[5-hydroxy-2-(3-methyl-butyl)-3-oxo-6-thiophen-2-yl-2,3-dihydro-pyridazin-4-yl]-1,1-dioxo-1,2-dihydro-1λ^6-benzo[1,2,4]thiadiazin-7-yl}-methanesulfonamide] |
| < 100 | CS(=O)(=O)Nc1ccc2c(c1)S(=O)(=O)N=C(c1c(O)c(-c3cccs3)nn(Cc3ccccc3)c1=O)N2 [N-[3-(2-Benzyl-5-hydroxy-3-oxo-6-thiophen-2-yl-2,3-dihydro-pyridazin-4-yl)-1,1-dioxo-1,2-dihydro-1λ^6-benzo[1,2,4]thiadiazin-7-yl]-methanesulfonamide] |
| 100 to 1000 | CS(=O)(=O)Nc1ccc2c(c1)S(=O)(=O)NC(c1c(O)c(-c3ccccc3)nn(CC3CC3)c1=O)=N2 [N-[3-(2-Cyclopropylmethyl-5-hydroxy-3-oxo-6-phenyl-2,3-dihydro-pyridazin-4-yl)-1,1-dioxo-1,2-dihydro-1l6-benzo[1,2,4]thiadiazin-7-yl]-methanesulfonamide] |
| < 100 | CS(=O)(=O)Nc1ccc2c(c1)S(=O)(=O)NC(c1c(O)c(-c3cccs3)nn(Cc3ccccn3)c1=O)=N2 [N-[3-(5-Hydroxy-3-oxo-2-pyridin-2-ylmethyl-6-thiophen-2-yl-2,3-dihydro-pyridazin-4-yl)-1,1-dioxo-1,2-dihydro-1λ^6-benzo[1,2,4]thiadiazin-7-yl]-methanesulfonamide] |
| 100 to 1000 | CC(C)CC(C)n1nc(-c2cccs2)c(O)c(C2=NS(=O)(=O)c3cc(NS(C)(=O)=O)ccc3N2)c1=O (stereo not shown) [N-{3-[2-(1,3-Dimethyl-butyl)-5-hydroxy-3-oxo-6-thiophen-2-yl-2,3-dihydro-pyridazin-4-yl]-1,1-dioxo-1,2-dihydro-1λ^6-benzo[1,2,4]thiadiazin-7-yl}-methanesulfonamide] |
| 100 to 1000 | CS(=O)(=O)Nc1ccc2c(c1)S(=O)(=O)N=C(c1c(O)c(-c3cccs3)nn(CCC3CCCCC3)c1=O)N2 [N-{3-[2-(2-Cyclohexyl-ethyl)-5-hydroxy-3-oxo-6-thiophen-2-yl-2,3-dihydro-pyridazin-4-yl]-1,1-dioxo-1,2-dihydro-1λ^6-benzo[1,2,4]thiadiazin-7-yl}-methanesulfonamide] |
| < 100 | CS(=O)(=O)Nc1ccc2c(c1)S(=O)(=O)NC(c1c(O)c(-c3cncs3)nn(CCC3CC3)c1=O)=N2 [N-{3-[2-(2-Cyclopropyl-ethyl)-5-hydroxy-3-oxo-6-thiazol-5-yl-2,3-dihydro-pyridazin-4-yl]-1,1-dioxo-1,2-dihydro-1λ^6-benzo[1,2,4]thiadiazin-7-yl}-methanesulfonamide] |
| < 100 | CS(=O)(=O)Nc1ccc2c(c1)S(=O)(=O)N=C(c1c(O)c(-c3cccs3)nn(CCC3CC3)c1=O)N2 [N-{3-[2-(2-Cyclopropyl-ethyl)-5-hydroxy-3-oxo-6-thiophen-2-yl-2,3-dihydro-pyridazin-4-yl]-1,1-dioxo-1,2-dihydro-1λ^6-benzo[1,2,4]thiadiazin-7-yl}-methanesulfonamide] |
| < 100 | CCC(C)(C)CCn1nc(-c2cccs2)c(O)c(C2=NS(=O)(=O)c3cc(NS(C)(=O)=O)ccc3N2)c1=O [N-{3-[2-(3,3-Dimethyl-pentyl)-5-hydroxy-3-oxo-6-thiophen-2-yl-2,3-dihydro-pyridazin-4-yl]-1,1-dioxo-1,2-dihydro-1λ^6-benzo[1,2,4]thiadiazin-7-yl}-methanesulfonamide] |
| < 100 | CC(C)(C)CCn1nc(-c2cccs2)c(O)c(C2=Nc3ccc(NS(C)(=O)=O)cc3S(=O)(=O)N2)c1=O [N-{3-[2-(3,3-dimethyl-butyl)-5-hydroxy-3-oxo-6-thiophen-2-yl-2,3-dihydro-pyridazin-4-yl]-1,1-dioxo-1,2-dihydro-1λ^6-benzo[1,2,4]thiadiazin-7-yl}-methanesulfonamide, sodium salt] |
| < 100 | CS(=O)(=O)Nc1ccc2c(c1)S(=O)(=O)N=C(c1c(O)c(-c3cccs3)nn(Cc3ccc(F)c(Cl)c3)c1=O)N2 [N-{3-[2-(3-Chloro-4-fluoro-benzyl)-5-hydroxy-3-oxo-6-thiophen-2-yl-2,3-dihydro-pyridazin-4-yl]-1,1-dioxo-1,2-dihydro-1λ^6-benzo[1,2,4]thiadiazin-7-yl}-methanesulfonamide] |

More lines, now with the values behind:

| SMILES | IC50 [nM] |
| --- | --- |
| O=C(NS(=O)(=O)Nc1ccc2c(c1)S(=O)(=O)NC(c1c(O)c(-c3cncs3)nn(CC3CCC3)c1=O)=N2)OCc1ccccc1 [N-[3-(2-Cyclobutylmethyl-5-hydroxy-3-oxo-6-thiazol-5-yl-2,3-dihydro-pyridazin-4-yl)-1,1-dioxo-1,2-dihydro-1λ^6-benzo[1,2,4]thiadiazin-7-yl]-3-carbamic-acid-benzyl-ester-sulfamide] | < 100 |
| CS(=O)(=O)Nc1ccc2c(c1)S(=O)(=O)NC(c1c(O)c(-c3cncs3)nn(CC3CCC3)c1=O)=N2 [N-[3-(2-Cyclobutylmethyl-5-hydroxy-3-oxo-6-thiazol-5-yl-2,3-dihydro-pyridazin-4-yl)-1,1-dioxo-1,2-dihydro-1λ^6-benzo[1,2,4]thiadiazin-7-yl]-methanesulfonamide] | < 100 |
| CS(=O)(=O)Nc1ccc2c(c1)S(=O)(=O)NC(c1c(O)c(-c3cccs3)nn(CC3CCC3)c1=O)=N2 [N-[3-(2-Cyclobutylmethyl-5-hydroxy-3-oxo-6-thiophen-2-yl-2,3-dihydro-pyridazin-4-yl)-1,1-dioxo-1,2-dihydro-1λ^6-benzo[1,2,4]thiadiazin-7-yl]-methanesulfonamide] | < 100 |
| CCC(C)n1nc(-c2cccs2)c(O)c(C2=NS(=O)(=O)c3cc(NS(C)(=O)=O)ccc3N2)c1=O (stereo not shown) [N-[3-(2-sec-Butyl-5-hydroxy-3-oxo-6-thiophen-2-yl-2,3-dihydro-pyridazin-4-yl)-1,1-dioxo-1,2-dihydro-1λ^6-benzo[1,2,4]thiadiazin-7-yl]-methanesulfonamide] | 100 to 1000 |
| CS(=O)(=O)Nc1ccc2c(c1)S(=O)(=O)N=C(c1c(O)c(-c3cccs3)nn(Cc3ccsc3)c1=O)N2 [N-[3-(5-Hydroxy-3-oxo-6-thiophen-2-yl-2-thiophen-3-ylmethyl-2,3-dihydro-pyridazin-4-yl)-1,1-dioxo-1,2-dihydro-1λ^6-benzo[1,2,4]thiadiazin-7-yl]-methanesulfonamide] | < 100 |
| CC(C)(C)Cn1nc(-c2cccs2)c(O)c(C2=Nc3ccc(NS(C)(=O)=O)cc3S(=O)(=O)N2)c1=O [N-{3-[2-(2,2-Dimethyl-propyl)-5-hydroxy-3-oxo-6-thiophen-2-yl-2,3-dihydro-pyridazin-4-yl]-1,1-dioxo-1,2-dihydro-1λ^6-benzo[1,2,4]thiadiazin-7-yl}-methanesulfonamide] | < 100 |
| CS(=O)(=O)Nc1ccc2c(c1)S(=O)(=O)N=C(c1c(O)c(-c3cccs3)nn(CCC3CCCC3)c1=O)N2 [N-{3-[2-(2-Cyclopentyl-ethyl)-5-hydroxy-3-oxo-6-thiophen-2-yl-2,3-dihydro-pyridazin-4-yl]-1,1-dioxo-1,2-dihydro-1λ^6-benzo[1,2,4]thiadiazin-7-yl}-methanesulfonamide] | < 100 |
| CS(=O)(=O)Nc1ccc2c(c1)S(=O)(=O)NC(c1c(O)c(-c3ccsc3)nn(CCC3CC3)c1=O)=N2 [N-{3-[2-(2-Cyclopropyl-ethyl)-5-hydroxy-3-oxo-6-thiophen-3-yl-2,3-dihydro-pyridazin-4-yl]-1,1-dioxo-1,2-dihydro-1λ^6-benzo[1,2,4]thiadiazin-7-yl}-methanesulfonamide] | < 100 |
| CC(C)=Cc1nn(CCC2CC2)c(=O)c(C2=Nc3ccc(NS(C)(=O)=O)cc3S(=O)(=O)N2)c1O [N-{3-[2-(2-Cyclopropyl-ethyl)-5-hydroxy-6-(2-methyl-propenyl)-3-oxo-2,3-dihydro-pyridazin-4-yl]-1,1-dioxo-1,2-dihydro-1λ^6-benzo[1,2,4]thiadiazin-7-yl}-methanesulfonamide] | < 100 |
| CC(C)(C)CCn1nc(-c2cccs2)c(O)c(C2=NS(=O)(=O)c3cc(NS(N)(=O)=O)ccc3N2)c1=O [N-{3-[2-(3,3-Dimethyl-butyl)-5-hydroxy-3-oxo-6-thiophen-2-yl-2,3-dihydro-pyridazin-4-yl]-1,1-dioxo-1,2-dihydro-1λ^6-benzo[1,2,4]thiadiazin-7-yl}-sulfamide] | < 100 |
| CS(=O)(=O)Nc1ccc2c(c1)S(=O)(=O)NC(c1c(O)c(-c3cncs3)nn(Cc3ccc(F)cc3)c1=O)=N2 [N-{3-[2-(4-Fluoro-benzyl)-5-hydroxy-3-oxo-6-thiazol-5-yl-2,3-dihydro-pyridazin-4-yl]-1,1-dioxo-1,2-dihydro-1λ^6-benzo[1,2,4]thiadiazin-7-yl}-methanesulfonamide] | < 100 |
